These results are taken from patent US11654196B2, “Dosing regimens for echinocandin class compounds” (priority 2012, dated 2023).

Like-named read-outs stand apart in the source and are kept apart here. *1 amine or outer side, *2 acyl side, *3 side chain or, on linkers, in order; H or OH if unused. Where a SMILES comes first, the peptide text is derived from it. Bridges are numbered along the chain shown (N, C = ends). [ ]: non-standard residue; d: D form. The star is where a group is joined. hTyr(3S-OH,4S-OH,3'-OSO3H) = N[C@H](C(=O)O)[C@H](O)[C@@H](O)c1ccc(O)c(OS(=O)(=O)O)c1; Orn(4R-OH,5R-OH) = O=C([C@H](C[C@@H](O)[C@@H](O)N[*:3])N[*:1])[*:2]; Pro(3S-OH,4S-Me) = C[C@H]1CN[C@H](C(=O)O)[C@H]1O; X1 = CCCCCOc1ccc(-c2cc(-c3ccc(C(=O)*)cc3)no2)cc1; Gln(3R-OH) = NC(=O)C[C@@H](O)[C@H](N)C(=O)O; Hyp = O=C(O)[C@@H]1C[C@@H](O)CN1

The nature of data set [1]: Pharmacokinetics following intravenous administration in beagle dogs. The data set is classed as in vivo. Particulars: 1.4 mg/kg IV slow bolus. On the procedure: Echinocandin class compounds were administered to beagle dogs weighing approximately 6-10 kg. Each compound was dosed at 1.4 mg/kg in aqueous saline (with or without 0.5% Tween) over course of 1-10 minutes. […] The dogs were fasted at least 12 hours prior to each dosing and offered food after the 4-hour blood sample was taken; water was withheld for 1 hour prior to and 4 hours following each dosing event. The dose for each animal was based on its most recent body weight. The test article was injected intravenously via a catheter placed in the cephalic vein as a slow bolus.
Blood was collected via the jugular vein. All blood samples (1 mL each) were collected into K3EDTA tubes. Following blood collection, the samples were immediately inverted several times and were held on wet ice pending centrifugation. The samples were centrifuged within 30 minutes of collection under refrigeration (˜5° C. for 10 minutes at 2000 g) to obtain plasma. The plasma was frozen immediately on dry ice after separation. The plasma samples were stored at approximately ˜70° C. until analysis.
Plasma (100 μL) was precipitated with 400 μL of 0.1% formic acid in acetonitrile containing the internal standard (100 ng/mL pneumocandin). The samples were then capped and vortexed for about 30 seconds followed by centrifugation at 14,000 rpm at room temperature for 10 minutes. Following centrifugation 200 μL of supernatant was transferred to plastic autosampler vials containing 200 μL of 0.1% formic acid in water and vortexed. Samples were then analyzed by LCMSMS.
All pharmacokinetic calculations were performed using WinNonlin version 4.1 (Pharsight Corp) by noncompartmental analysis.

A short description of data set [2]: Pharmacokinetics (oral bioavailability) following oral administration in beagle dogs. The format is in vivo. More on the design: key to Improvement (ratio of % oral bioavailability to saline): NI = no improvement in oral bioavailability in comparison to saline. Particulars: for % BA in saline: oral about 7-10 mg/kg, formulation 11 (saline). On the procedure: Echinocandin class compounds were administered to beagle dogs weighing approximately 6-10 kg. Each animal received the appropriate prepared test article in a single oral capsule dose at a target dose level of about 7-10 mg/kg. Immediately after dosing, each animal was offered 20 mL-30 mL of water orally (Groups 1-4) or 30 mL of water orally to assist in swallowing the capsule.
Animals were treated and blood samples were drawn and analyzed as provided in Example 1.
The bioavailability of each oral dose formulation was estimated by comparison to intravenous plasma concentration data in dogs from Example 1. The results provided in Table 3 show the oral bioavailability for the echinocandin class compound in saline (formulation 11), and the improvement over saline with the use of a formulation of the invention.

For data set [3] the following is noted: Rat, literature values; cited from earlier work.
For data set [4] the following is noted: Mouse, literature values; cited from earlier work.
For data set [5] the following is noted: Man, literature values; cited from earlier work.
For data set [6] the following is noted: Rabbit, literature values; cited from earlier work.

In the case of `CCCCCOc1ccc(-c2ccc(-c3ccc(C(=O)NC4CC(O)C(OCCOCCOC)NC(=O)C5C(O)C(C)CN5C(=O)C(C(C)O)NC(=O)C(C(O)C(O)c5ccc(O)cc5)NC(=O)C5CC(O)CN5C(=O)C(C(C)O)NC4=O)cc3)cc2)cc1` (centres unmarked) [Compound 19], in data set [1], the AUC (commonly concentration integrated over time) came to 96100 ng·h/mL; the Cmax (in general, the peak of the concentration-time curve) is given as 7700 ng/mL; the Mean clearance is given as 0.202 mL/min/kg; the T1/2 was 18.9 h. Also, the “Volume of Distribution” value in data set [1] worked out at 0.331 L/kg. In addition, the “% BA in saline” value in data set [2] is given as 5.74%. Also, the “Improvement (ratio of % oral bioavailability to saline)” value in data set [2] (oral, formulation 1) is listed as “NI”. Further, the “Improvement (ratio of % oral bioavailability to saline)” value in data set [2] (oral, formulation 5) is given as “NI”.

As for `CCCCCOc1ccc(-c2ccc(-c3ccc(C(=O)NC4CC(O)C(OCCOCCO)NC(=O)C5C(O)C(C)CN5C(=O)C(C(C)O)NC(=O)C(C(O)C(O)c5ccc(O)cc5)NC(=O)C5CC(O)CN5C(=O)C(C(C)O)NC4=O)cc3)cc2)cc1` (centres unmarked) [Compound 21], in data set [1], the AUC is 113000 ng·h/mL, the Cmax came out at 6740 ng/mL, the Mean clearance amounted to 0.145 mL/min/kg and the T1/2 worked out at 28.9 h. Also, in data set [1], the “Volume of Distribution” value was determined as 0.361 L/kg. For the same molecule, the “% BA in saline” value in data set [2] was 4.70%. Moreover, in data set [2] (oral, formulation 1), the “% BA” value was “(6.42%)” and the “Improvement (ratio of % oral bioavailability to saline)” value is on record as 1.3. In data set [2] (oral, formulation 5), the “Improvement (ratio of % oral bioavailability to saline)” value is “NI”. Further, the “Improvement (ratio of % oral bioavailability to saline)” value in data set [2] (oral, formulation 7) was “NI”.

Regarding `CCCCCOc1ccc(-c2ccc(-c3ccc(C(=O)NC4CC(O)C(OCCOCCN)NC(=O)C5C(O)C(C)CN5C(=O)C(C(C)O)NC(=O)C(C(O)C(O)c5ccc(O)cc5)NC(=O)C5CC(O)CN5C(=O)C(C(C)O)NC4=O)cc3)cc2)cc1` (centres unmarked) [Compound 26], in data set [1], the AUC came to 67167 ng·h/mL, the peak concentration (Cmax) is reported as 4080 ng/mL, the Mean clearance is 0.219 mL/min/kg and the T1/2 was 33.7 h. For the same molecule, the “Volume of Distribution” value in data set [1] turned out to be 0.627 L/kg. For the same molecule, the “Improvement (ratio of % oral bioavailability to saline)” value in data set [2] (oral, formulation 5) is on record as “NI”. In addition, the “Improvement (ratio of % oral bioavailability to saline)” value in data set [2] (oral, formulation 6) is “NI”. Moreover, in data set [2] (oral, formulation 7), the “Improvement (ratio of % oral bioavailability to saline)” value is listed as “NI”.

With `CCCCCOc1ccc(-c2ccc(-c3ccc(C(=O)NC4CC(O)C(NCC[N+](C)(C)C)NC(=O)C5C(O)C(C)CN5C(=O)C(C(C)O)NC(=O)C(C(O)C(O)c5ccc(O)cc5)NC(=O)C5CC(O)CN5C(=O)C(C(C)O)NC4=O)cc3)cc2)cc1` (centres unmarked) [Compound 37], in data set [1], the AUC came out at 46200 ng·h/mL, the Cmax is on record as 2660 ng/mL, the Mean clearance came out at 0.365 mL/min/kg and the T1/2 was 27.6 h. Moreover, the “Volume of Distribution” value in data set [1] was found to be 0.874 L/kg. Moreover, the “Improvement (ratio of % oral bioavailability to saline)” value in data set [2] (oral, formulation 1) is “NI”. Also, the “Improvement (ratio of % oral bioavailability to saline)” value in data set [2] (oral, formulation 3) was “NI”. In data set [2] (oral, formulation 5), the “Improvement (ratio of % oral bioavailability to saline)” value is listed as “NI”. For the same molecule, the “Improvement (ratio of % oral bioavailability to saline)” value in data set [2] (oral, formulation 7) is listed as “NI”.

As for `CCCCCOc1ccc(-c2ccc(-c3ccc(C(=O)NC4CC(O)C(NCCNCCO)NC(=O)C5C(O)C(C)CN5C(=O)C(C(C)O)NC(=O)C(C(O)C(O)c5ccc(O)cc5)NC(=O)C5CC(O)CN5C(=O)C(C(C)O)NC4=O)cc3)cc2)cc1` (centres unmarked) [Compound 39], in data set [1], the AUC was 50800 ng·h/mL, the maximum concentration (Cmax) is reported as 3630 ng/mL, the Mean clearance was 0.377 mL/min/kg and the T1/2 amounted to 21.0 h. Besides, the “Volume of Distribution” value in data set [1] stood at 0.687 L/kg. In addition, in data set [2], the “% BA in saline” value worked out at 5.15%. In addition, the “Improvement (ratio of % oral bioavailability to saline)” value in data set [2] (oral, formulation 1) is recorded as “NI”. Further, the “Improvement (ratio of % oral bioavailability to saline)” value in data set [2] (oral, formulation 5) is reported as “NI”.

Turning to `CCCCCOc1ccc(-c2cc(-c3ccc(C(=O)N[C@H]4C[C@@H](O)[C@@H](O)NC(=O)[C@@H]5[C@@H](O)[C@@H](C)CN5C(=O)[C@H]([C@H](O)CC(N)=O)NC(=O)[C@H]([C@H](O)[C@@H](O)c5ccc(O)c(OS(=O)(=O)O)c5)NC(=O)[C@@H]5C[C@@H](O)CN5C(=O)[C@H]([C@@H](C)O)NC4=O)cc3)no2)cc1` [Micafungin, micafungin] (X1-[Orn(4R-OH,5R-OH)]T[Hyp][hTyr(3S-OH,4S-OH,3'-OSO3H)][Gln(3R-OH)][Pro(3S-OH,4S-Me)]; lactam 1-C), the Half-life in data set [3] was 5 h; in data set [4] it was 7 to 13 h; in data set [5], 10 to 17 h; in data set [6] it was 3 h.
